Assay results as given in ChEMBL document CHEMBL1140295, “Synthesis and monoamine transporter binding properties of 2,3-diaryltropanes” (J Med Chem, 2005).

Experiments:
[1] = target: Sodium-dependent dopamine transporter (Homo sapiens, UniProt Q01959); assay: Displacement of [3H]WIN-35428 from DAT
[2] = target: Sodium-dependent noradrenaline transporter (Homo sapiens, UniProt P23975); assay: Displacement of [3H]nisoxetine from NET
[3] = target: Sodium-dependent serotonin transporter (Homo sapiens, UniProt P31645); assay: Displacement of [3H]paroxetine from 5HTT
Homo sapiens [4] = species on record: Homo sapiens; assay: Selectivity for DAT over NET
Homo sapiens [5] = species on record: Homo sapiens; assay: Selectivity for DAT over 5HTT

Sodium-dependent serotonin transporter, sequence (P31645 whole entry): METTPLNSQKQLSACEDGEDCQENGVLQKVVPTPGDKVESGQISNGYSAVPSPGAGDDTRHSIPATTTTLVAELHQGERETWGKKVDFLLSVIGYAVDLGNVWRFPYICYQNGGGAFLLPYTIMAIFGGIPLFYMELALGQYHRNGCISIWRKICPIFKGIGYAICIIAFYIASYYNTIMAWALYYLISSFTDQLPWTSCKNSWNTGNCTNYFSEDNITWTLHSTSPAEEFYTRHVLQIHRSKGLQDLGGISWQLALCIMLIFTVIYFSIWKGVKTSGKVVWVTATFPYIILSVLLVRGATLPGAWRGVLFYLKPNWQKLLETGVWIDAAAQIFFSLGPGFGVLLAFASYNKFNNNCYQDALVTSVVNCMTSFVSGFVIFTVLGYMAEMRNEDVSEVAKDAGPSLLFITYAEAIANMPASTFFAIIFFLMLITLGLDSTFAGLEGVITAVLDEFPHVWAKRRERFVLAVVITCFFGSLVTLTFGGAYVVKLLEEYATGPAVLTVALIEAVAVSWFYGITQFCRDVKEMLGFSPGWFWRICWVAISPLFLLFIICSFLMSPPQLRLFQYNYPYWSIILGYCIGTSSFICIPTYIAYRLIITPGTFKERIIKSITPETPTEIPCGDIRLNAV
Sodium-dependent noradrenaline transporter, sequence (P23975 whole entry): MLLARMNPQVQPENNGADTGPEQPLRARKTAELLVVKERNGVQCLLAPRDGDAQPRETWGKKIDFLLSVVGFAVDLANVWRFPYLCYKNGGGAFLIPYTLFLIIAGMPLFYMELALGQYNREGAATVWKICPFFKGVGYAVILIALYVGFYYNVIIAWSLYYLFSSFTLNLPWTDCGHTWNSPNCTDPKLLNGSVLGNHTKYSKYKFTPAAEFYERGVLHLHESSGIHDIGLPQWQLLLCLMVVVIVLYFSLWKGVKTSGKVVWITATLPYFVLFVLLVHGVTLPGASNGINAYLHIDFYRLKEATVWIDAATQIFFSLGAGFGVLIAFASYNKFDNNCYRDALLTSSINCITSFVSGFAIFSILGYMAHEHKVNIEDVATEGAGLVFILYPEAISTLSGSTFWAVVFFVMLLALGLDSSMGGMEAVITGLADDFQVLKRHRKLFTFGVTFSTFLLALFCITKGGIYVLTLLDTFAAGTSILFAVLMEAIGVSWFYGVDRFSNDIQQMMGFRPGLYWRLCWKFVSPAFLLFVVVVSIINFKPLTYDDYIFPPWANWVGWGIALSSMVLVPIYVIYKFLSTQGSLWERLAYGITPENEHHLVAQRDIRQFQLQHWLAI
Sodium-dependent dopamine transporter, sequence (Q01959 whole entry): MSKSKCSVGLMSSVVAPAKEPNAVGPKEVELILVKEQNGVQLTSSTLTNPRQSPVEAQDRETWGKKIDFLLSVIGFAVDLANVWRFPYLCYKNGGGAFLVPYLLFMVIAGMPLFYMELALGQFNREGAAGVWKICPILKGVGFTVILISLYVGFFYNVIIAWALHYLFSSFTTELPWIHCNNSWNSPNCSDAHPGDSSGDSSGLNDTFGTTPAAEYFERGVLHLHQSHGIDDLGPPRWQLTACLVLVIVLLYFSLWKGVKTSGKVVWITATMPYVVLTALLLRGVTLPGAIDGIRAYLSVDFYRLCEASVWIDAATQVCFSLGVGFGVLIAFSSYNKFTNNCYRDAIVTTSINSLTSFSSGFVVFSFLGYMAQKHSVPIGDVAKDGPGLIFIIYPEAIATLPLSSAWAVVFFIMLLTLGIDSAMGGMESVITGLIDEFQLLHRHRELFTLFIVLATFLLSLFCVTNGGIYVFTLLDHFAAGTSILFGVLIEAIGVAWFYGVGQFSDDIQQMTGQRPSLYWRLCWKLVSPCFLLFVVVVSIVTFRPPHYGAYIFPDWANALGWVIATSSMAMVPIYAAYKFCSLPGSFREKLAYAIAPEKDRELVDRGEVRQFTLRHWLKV

Row | SMILES | IC50 [1] [nM] | IC50 [2] [nM] | Ki [2] [nM] | IC50 [3] [nM] | Ki [3] [nM] | Selectivity ratio (Homo sapiens [4]) | Selectivity ratio (Homo sapiens [5])
1 | Cc1ccc([C@@H]2CC3CCC([C@@H]2c2ccccc2)N3C)cc1 (some centres not stated) | 430 | 4850 | 2920 | 16000 | 1500 |  | 
2 | COc1ccc([C@@H]2C3CCC(C[C@@H]2c2ccc(C)cc2)N3C)cc1 (some centres not stated) | 1.23 | 282 | 191 | 1670 | 410 |  | 
3 | Cc1ccc([C@H]2CC3CCC([C@H]2c2ccccc2)N3C)cc1 (some centres not stated) | 1.96 | 480 | 280 | 1100 | 100 |  | 
4 | COC(=O)[C@@H]1C2CC[C@H](C[C@@H]1c1ccc(C)cc1)N2C | 23.4 | 3850 | 1930 |  |  |  | 
5 | Cc1ccc([C@H]2CC3CCC([C@H]2c2ccc(F)cc2)N3C)cc1 (some centres not stated) | 0.9 | 132 | 61 | 100 | 25 |  | 
6 | Cc1ccc([C@H]2C3CCC(C[C@H]2c2ccccc2)N3C)cc1 (some centres not stated) | 540 | 4700 | 2800 | 11000 | 1000 |  | 
7 | Cc1ccc([C@@H]2CC3CCC([C@@H]2c2ccc(C)cc2)N3C)cc1 (some centres not stated) |  | 13000 | 7800 | 10000 | 910 |  | 
8 | CN1C2CCC1[C@@H](c1ccccc1)[C@@H](c1ccccc1)C2 (some centres not stated) | 12.6 | 920 | 550 | 21000 | 1900 |  | 
9 | CN1C2CCC1[C@H](c1ccccc1)[C@H](c1ccccc1)C2 (some centres not stated) | 690 | 1040 | 626 | 41000 | 3700 |  | 
10 | COc1ccc([C@@H]2C3CCC(C[C@@H]2c2ccc(C)cc2)N3C)cc1OC (some centres not stated) | 23.3 | 10000 | 6000 | 13700 | 1250 |  | 
11 | Cc1ccc([C@@H]2C3CCC(C[C@@H]2c2ccccc2)N3C)cc1 (some centres not stated) | 22.4 | 6100 | 3700 | 45000 | 4100 |  | 
12 | COc1ccc([C@@H]2C3CCC(C[C@H]2c2ccc(C)cc2)N3C)cc1OC (some centres not stated) | 980 | 78000 | 46000 | 16200 | 1470 |  | 
13 | Cc1ccc([C@H]2CC3CCC([C@H]2c2ccc(C)cc2)N3C)cc1 (some centres not stated) | 1.35 | 780 | 390 | 1010 | 250 | 289 | 185
14 | COc1ccc([C@H]2C3CCC(C[C@H]2c2ccc(C)cc2)N3C)cc1 (some centres not stated) | 238 |  |  | 1530 | 376 |  | 
